Test results published in EP0107907A2, “Improvements in or relating to immunomodulating agents” (ELI LILLY AND COMPANY, priority 1982, dated 1984).

System: murine macrophages
Assay: In vitro activation of murine macrophages (macrophage-mediated tumor cytotoxicity against P815 cells)
Format: cell-based
Details: for Percent Macrophage Cytotoxicity: 48 hours; for immunomodulatory activity: in the in vitro assay
Description: In one procedure, the ability of the compounds to activate murine macrophages in vitro was determined. Peritoneal macrophages were exposed to a compound of formula 1, 2, or 3 simultaneously with the addition of target cells. Tumor cytotoxicity of these treated macrophages was determined 48 hours later by trypan blue enumeration. The percentage of growth inhibition of P815 cells due to composition-mediated macrophage activation was calculated by comparison to that of P815 cells grown in the.presence of macrophages exposed to buffer.

SMILES	Percent Macrophage Cytotoxicity (Fosfomycin 10 µg/ml, Experiment 1) [%]	Percent Macrophage Cytotoxicity (Fosfomycin 10 µg/ml, Experiment 2) [%]	Percent Macrophage Cytotoxicity (Fosfomycin 100 µg/ml, Experiment 1) [%]	Percent Macrophage Cytotoxicity (Fosfomycin 100 µg/ml, Experiment 2) [%]	immunomodulatory activity
C[C@@H]1O[C@@H]1P(=O)(O)O [Fosfomycin, reference compound]	49	11	47	30	
C[C@H](N)C(=O)N[C@@H](C)P(=O)(O)O [alaphosphin, L-alanyl-L-1-aminb-- ethylphosphonic acid, reference compound]					did not exhibit immunomodulatory activity
O=CN(O)CCCP(=O)(O)O [fosmidomycin, reference compound]					did not exhibit immunomodulatory activity
